Values of other authors in US20120209125A1, “Singlet Oxygen Production and Dosimetry for Photodynamic Therapy” (PHYSICAL SCIENCES, INC., priority 2011, published 2012).

Conditions: isoflurane gas anesthesia; 'minimally metabolized'

fraction metabolized by the liver: < 0.17%
SMILES: FC(F)OC(Cl)C(F)(F)F (stereo not shown) [isoflurane]
